Experimental findings from US12318370B2, “Processes for preparing solid state forms” (Varda Space Industries, Inc., priority 2022, dated 2025) are described below.

What all share (format): physicochemical
A short description of data set [1]: Temperature and humidity stress test, 40° C./75% RH, XRPD. As to conditions: for Change of solid form under stress, in words: 40° C. and 75% RH, XRPD at 30, 60 and 96 days; for Solid form after stress test / Time at which conversion to Form I was detected: 40° C./75% RH; for Solid form after stress test: XRPD. How it is done:
XRPD was measured at 30, 60, and 96 days (FIG. 15).

A further data set is described as follows: Manual grinding, XRPD. As to conditions: mortar and pestle, five cycles of 2 minutes (10 minutes total).
The nature of data set [2]: Compression at 700 lbs, XRPD. As to conditions: XRPD before and after, listed as ritonavir Form III.
Data set [3] is described as follows: Short-term thermal stability, Raman microscopy. The note with it: sequentially 15 minutes at 50° C., 70° C. and 90° C., Raman after each. The procedure:
Short-term thermal stability experiments were conducted by holding the material from example 1f sequentially for 15 minutes at 50° C., 15 minutes at 70° C., and 15 minutes at 90° C. The sample was analyzed by Raman microscopy after each temperature exposure. […] FIG. 10 compares the short-term thermal stability results to the reference spectra from FIG. 9.

The nature of data set [4]: Longer-term stability at ambient conditions, Raman. As to conditions: 5 weeks and up to 23 weeks. How it is done:
Additionally, a longer-term stability study was performed.

A short description of data set [5]: Dynamic vapor sorption (DVS). As to conditions: 5% to 95% RH. The text has this:
No hysteresis was observed. DVS isotherms were characterized using a VTI SGA-100 Vapor Sorption Analyzer. The sample was not dried prior to analysis. Sorption and desorption isotherms were collected over a range from 5% to 95% RH at 10% RH increments under a dry air purge. The equilibrium criterion used for analysis was less than 0.0100%^0/weight change in five minutes with a maximum equilibration time of three hours and a 2-minute data logging interval. Data were not corrected for the initial moisture content of the sample.

For `CC(C)c1nc(CN(C)C(=O)N[C@H](C(=O)N[C@@H](Cc2ccccc2)C[C@H](O)[C@H](Cc2ccccc2)NC(=O)OCc2cncs2)C(C)C)cs1` (single isomer, unassigned) [Amorphous, 10-hydroxy-2-methyl-5-(1-methylethyl)-1-[2-(1-methylethyl)-4-thiazolyl]-3,6-dioxo-8,11-bis(phenylmethyl)-2,4,7,12-tetraazatridecan-13-oic acid, 5-thiazolylmethyl ester, [SS-(5R*,8R*,10R*,1R*)]], the “Change of solid form under stress, in words” value in data set [1] is reported as “No change”. Moreover, the “Solid form after stress test” value in data set [1] (30 days), in data set [1] (60 days) and in data set [1] (96 days) was “Form I” throughout. The “Time at which conversion to Form I was detected” value in data set [1] (listed as amorphous ritonavir) is on record as at most 30 days. For the same molecule, the “Solid form after manual grinding” value in the data set “Manual grinding, XRPD” (listed as Amorphous material) is reported as “remained unchanged”.
As for `CC(C)c1nc(CN(C)C(=O)N[C@H](C(=O)N[C@@H](Cc2ccccc2)C[C@H](O)[C@H](Cc2ccccc2)NC(=O)OCc2cncs2)C(C)C)cs1` (single isomer, unassigned) [Form II, 10-hydroxy-2-methyl-5-(1-methylethyl)-1-[2-(1-methylethyl)-4-thiazolyl]-3,6-dioxo-8,11-bis(phenylmethyl)-2,4,7,12-tetraazatridecan-13-oic acid, 5-thiazolylmethyl ester, [SS-(5R*,8R*,10R*,1R*)]], the “Solid form after manual grinding” value in “Manual grinding, XRPD” was “mixture of amorphous and Form II”.
As to `CC(C)c1nc(CN(C)C(=O)N[C@H](C(=O)N[C@@H](Cc2ccccc2)C[C@H](O)[C@H](Cc2ccccc2)NC(=O)OCc2cncs2)C(C)C)cs1` (single isomer, unassigned) [Form III, 10-hydroxy-2-methyl-5-(1-methylethyl)-1-[2-(1-methylethyl)-4-thiazolyl]-3,6-dioxo-8,11-bis(phenylmethyl)-2,4,7,12-tetraazatridecan-13-oic acid, 5-thiazolylmethyl ester, [SS-(5R*,8R*,10R*,1R*)]], the “Solid form after stress test” value in data set [1] (30 days) is “Form III”; in data set [1] (60 days), “Form III + Form I”; in data set [1] (96 days), “Form III + Form I”; in data set [1] (96 days, listed as ritonavir Form III), “presence of Form I peaks”. Further, the “Time at which conversion to Form I was detected” value in data set [1] (listed as Form III ritonavir) and in data set [1] (listed as ritonavir Form III) was 60 days throughout. The “Solid form after manual grinding” value in the data set “Manual grinding, XRPD” (listed as ritonavir Form III) is reported as “amorphous with traces of Form III”. Further, the “Change of solid form after compression” value in data set [2] is “no change”. The “Solid form after short-term thermal exposure” value in data set [3] is “remained as Form III ritonavir”. Also, in data set [4], the “Solid form after storage at ambient conditions” value was “remained unchanged”. Also, in data set [5], the Hygroscopicity result is on record as “not hygroscopic”.
`CC(C)c1nc(CN(C)C(=O)N[C@H](C(=O)N[C@@H](Cc2ccccc2)C[C@H](O)[C@H](Cc2ccccc2)NC(=O)OCc2cncs2)C(C)C)cs1` (single isomer, unassigned) [Form I, 10-hydroxy-2-methyl-5-(1-methylethyl)-1-[2-(1-methylethyl)-4-thiazolyl]-3,6-dioxo-8,11-bis(phenylmethyl)-2,4,7,12-tetraazatridecan-13-oic acid, 5-thiazolylmethyl ester, [SS-(5R*,8R*,10R*,1R*)]]: the “Change of solid form under stress, in words” value in data set [1] is given as “No change”. In addition, the “Solid form after stress test” value in data set [1] (30 days), in data set [1] (60 days) and in data set [1] (96 days) was “Form I” in each case. The “Solid form after manual grinding” value in the data set “Manual grinding, XRPD” is “Mixture of amorphous and Form I”.
